# Assay results taken from the supplement of paper PMC10307832.
# What was measured:
# Test in all cases: relative viability (nuclei count vs DMSO), 5 days (fraction); higher = more cells survive
# [1] = compound: C=CCNC1=C2C[C@@H](C)C[C@H](OC)[C@H](O)[C@@H](C)/C=C(\C)[C@H](OC(N)=O)[C@@H](OC)/C=C\C=C(/C)C(=O)NC(=CC1=O)C2=O [17-AAG] + CC(=O)c1c(C)c2cnc(Nc3ccc(N4CCNCC4)cn3)nc2n(C2CCCC2)c1=O [Palbociclib] (partner 0.5 µM)
# Outline: (§1)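 Lung cancer cell lines were seeded in 1536-well plates and dosed by pin tool the next day, with either a single drug or a fixed anchor-drug dose combined with five library-drug doses (not always all listed) spaced in √10 steps. Five days later, one step fixed the cells and stained their nuclei (final 0.05% Triton X-100, 1% formaldehyde, 1 ug/ml Hoechst), and nuclei were counted on 4× images. Relative viability is the nuclei count in treated wells divided by the count in vehicle wells, and each value is the median of duplicate plates.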
# [2] = compound: C=CCNC1=C2C[C@@H](C)C[C@H](OC)[C@H](O)[C@@H](C)/C=C(\C)[C@H](OC(N)=O)[C@@H](OC)/C=C\C=C(/C)C(=O)NC(=CC1=O)C2=O [17-AAG] + O=C(c1cc(Cc2n[nH]c(=O)c3ccccc23)ccc1F)N1CCN(C(=O)C2CC2)CC1 [Olaparib] (partner 8 µM)
# Outline: as §1
# [3] = compound: C=CCNC1=C2C[C@@H](C)C[C@H](OC)[C@H](O)[C@@H](C)/C=C(\C)[C@H](OC(N)=O)[C@@H](OC)/C=C\C=C(/C)C(=O)NC(=CC1=O)C2=O [17-AAG] + Cc1nc(NC(=O)N2CCC[C@H]2C(N)=O)sc1-c1ccnc(C(C)(C)C(F)(F)F)c1 [Alpelisib] (partner 2 µM)
# Outline: as §1
# [4] = compound: C=CCNC1=C2C[C@@H](C)C[C@H](OC)[C@H](O)[C@@H](C)/C=C(\C)[C@H](OC(N)=O)[C@@H](OC)/C=C\C=C(/C)C(=O)NC(=CC1=O)C2=O [17-AAG] + Nc1nc2[nH]cc(CCc3ccc(C(=O)N[C@@H](CCC(=O)O)C(=O)O)cc3)c2c(=O)[nH]1 [Pemetrexed] (partner 0.2 µM)
# Outline: as §1
Cell Line,relative viability ([1]; first compound 0.00128 µM),relative viability ([1]; first compound 0.004048 µM),relative viability ([1]; first compound 0.0128 µM),relative viability ([1]; first compound 0.04048 µM),relative viability ([1]; first compound 0.128 µM),relative viability ([2]; first compound 0.00128 µM),relative viability ([2]; first compound 0.004048 µM),relative viability ([2]; first compound 0.0128 µM),relative viability ([2]; first compound 0.04048 µM),relative viability ([2]; first compound 0.128 µM),relative viability ([3]; first compound 0.00128 µM),relative viability ([3]; first compound 0.004048 µM),relative viability ([3]; first compound 0.0128 µM),relative viability ([3]; first compound 0.04048 µM),relative viability ([3]; first compound 0.128 µM),relative viability ([4]; first compound 0.00128 µM),relative viability ([4]; first compound 0.004048 µM),relative viability ([4]; first compound 0.0128 µM),relative viability ([4]; first compound 0.04048 µM),relative viability ([4]; first compound 0.128 µM)
NCI-H2126,0.358,0.375,0.364,0.344,0.349,0.895,0.887,0.893,0.762,0.265,0.757,0.792,0.742,0.714,0.303,0.689,0.749,0.746,0.257,0.258
NCI-H2170,0.397,0.385,0.324,0.192,0.115,0.663,0.565,0.466,0.129,0.12,0.821,0.723,0.426,0.244,0.178,0.256,0.27,0.262,0.152,0.139
NCI-H2228,0.672,0.483,0.131,0.101,0.107,0.523,0.21,0.127,0.111,0.147,0.781,0.273,0.16,0.19,0.153,0.333,0.158,0.11,0.148,0.12
NCI-H2347,0.45,0.446,0.397,0.317,0.322,0.589,0.607,0.496,0.349,0.341,1.12,0.961,1.1,0.565,0.417,0.426,0.463,0.517,0.376,0.331
NCI-H2405,0.541,0.525,0.364,0.219,0.174,0.797,0.856,0.275,0.233,0.168,0.942,0.695,0.221,0.233,0.16,1.05,0.956,0.267,0.186,0.156
NCI-H3122,0.194,0.155,0.19,0.0911,0.117,0.598,0.61,0.538,0.288,0.124,0.687,0.533,0.198,0.196,0.173,0.198,0.191,0.127,0.122,0.11
PC-3 [JPC-3],0.575,0.57,0.551,0.463,0.528,1.23,1.17,1.16,0.581,0.697,0.976,1.03,1.02,–,0.955,1.23,1.12,1.18,0.491,0.85
PC-14,0.471,0.241,0.0966,0.0821,0.0751,0.298,0.132,0.0665,0.0524,0.0698,0.939,0.726,0.662,0.106,0.0874,0.143,0.166,0.111,0.0924,0.0882
RERF-LC-KJ,1.11,1.07,0.857,0.472,0.219,0.954,0.648,0.291,0.249,0.216,0.957,0.829,0.759,0.291,0.277,0.47,0.514,0.33,0.255,0.219
SK-LU-1,0.441,0.469,0.295,0.272,0.204,0.512,0.439,0.301,0.153,0.173,0.961,0.327,0.188,0.237,0.165,0.999,0.63,0.28,0.27,0.19
SK-MES-1,0.347,0.394,0.281,0.211,0.164,0.732,0.494,0.184,0.17,0.16,0.884,0.842,0.553,0.144,0.152,0.951,0.781,0.284,0.171,0.153
SW 1573,0.459,0.207,0.169,0.103,0.0788,0.441,0.234,0.182,0.113,0.0907,0.817,0.716,0.648,0.158,0.109,0.819,0.93,0.164,0.11,0.0923
UMC-11,0.353,0.371,0.3,0.249,0.292,0.519,0.376,0.261,0.0963,0.174,1.05,0.855,0.658,0.211,0.129,0.793,0.741,0.576,0.246,0.183
